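GI50: concentration for 50% inhibition of growth. TGI: concentration producing complete growth inhibition.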
Assays:
Experiment in all cases: NCI anticancer screen, dose series, 384-well format
UACC-257 melanoma = system: UACC-257 melanoma
CAKI-1 renal = system: CAKI-1 renal
HT29 colon = system: HT29 colon
NCI-H23 lung = system: NCI-H23 lung
HS 578T breast = system: HS 578T breast
RXF 393 renal = system: RXF 393 renal
OVCAR-4 ovarian = system: OVCAR-4 ovarian
NCI-H460 NSCLC = system: NCI-H460 NSCLC
HOP-92 NSCLC = system: HOP-92 NSCLC
HCT-15 colon = system: HCT-15 colon
M14 melanoma = system: M14 melanoma
OVCAR-8 ovarian = system: OVCAR-8 ovarian
SK-MEL-28 melanoma = system: SK-MEL-28 melanoma
A549 NSCLC = system: A549 NSCLC
TK-10 renal = system: TK-10 renal
KM12 colon = system: KM12 colon
MOLT-4 leukemia = system: MOLT-4 leukemia
EKVX NSCLC = system: EKVX NSCLC
NCI-H522 lung = system: NCI-H522 lung
T-47D breast = system: T-47D breast
SF-295 CNS = system: SF-295 CNS
UACC-62 melanoma = system: UACC-62 melanoma
MDA-MB-231 breast = system: MDA-MB-231 breast
HL-60(TB) leukemia = system: HL-60(TB) leukemia
SN12C renal = system: SN12C renal
PC-3 prostate = system: PC-3 prostate
SNB-75 CNS = system: SNB-75 CNS
DU-145 prostate = system: DU-145 prostate
HCT-116 colon = system: HCT-116 colon
MALME-3M melanoma = system: MALME-3M melanoma
NCI-H322M lung = system: NCI-H322M lung
MCF7 breast = system: MCF7 breast
U251 glioblastoma = system: U251 glioblastoma
SNB-19 CNS = system: SNB-19 CNS
A498 renal = system: A498 renal
NCI/ADR-RES ovarian = system: NCI/ADR-RES ovarian
MDA-MB-468 breast = system: MDA-MB-468 breast
SR leukemia = system: SR leukemia
RPMI-8226 leukemia = system: RPMI-8226 leukemia
SF-539 CNS = system: SF-539 CNS
HCC-2998 colon = system: HCC-2998 colon
IGROV1 ovarian = system: IGROV1 ovarian
SF-268 CNS = system: SF-268 CNS
OVCAR-3 ovarian = system: OVCAR-3 ovarian
OVCAR-5 ovarian = system: OVCAR-5 ovarian
COLO 205 colon = system: COLO 205 colon
NCI-H226 lung = system: NCI-H226 lung
LOX IMVI melanoma = system: LOX IMVI melanoma
SK-OV-3 ovarian = system: SK-OV-3 ovarian
HOP-62 NSCLC = system: HOP-62 NSCLC
ACHN renal = system: ACHN renal
BT-549 breast = system: BT-549 breast
MDA-MB-435 melanoma = system: MDA-MB-435 melanoma
SK-MEL-5 melanoma = system: SK-MEL-5 melanoma

Structure (SMILES): NC(=O)c1ccc(N(C(N)=O)c2c(F)cccc2F)nc1-c1ccc(F)cc1F
- GI50 (UACC-257 melanoma): > 100 µM
- TGI (UACC-257 melanoma): > 100 µM
- GI50 (CAKI-1 renal): > 100 µM
- TGI (CAKI-1 renal): > 100 µM
- GI50 (HT29 colon): > 100 µM
- TGI (HT29 colon): > 100 µM
- GI50 (NCI-H23 lung): > 100 µM
- TGI (NCI-H23 lung): > 100 µM
- GI50 (HS 578T breast): > 100 µM
- TGI (HS 578T breast): > 100 µM
- GI50 (RXF 393 renal): > 100 µM
- TGI (RXF 393 renal): > 100 µM
- GI50 (OVCAR-4 ovarian): > 100 µM
- TGI (OVCAR-4 ovarian): > 100 µM
- GI50 (NCI-H460 NSCLC): > 100 µM
- TGI (NCI-H460 NSCLC): > 100 µM
- GI50 (HOP-92 NSCLC): > 100 µM
- TGI (HOP-92 NSCLC): > 100 µM
- GI50 (HCT-15 colon): > 100 µM
- TGI (HCT-15 colon): > 100 µM
- GI50 (M14 melanoma): > 100 µM
- TGI (M14 melanoma): > 100 µM
- GI50 (OVCAR-8 ovarian): > 100 µM
- TGI (OVCAR-8 ovarian): > 100 µM
- GI50 (SK-MEL-28 melanoma): > 100 µM
- TGI (SK-MEL-28 melanoma): > 100 µM
- GI50 (A549 NSCLC): > 100 µM
- TGI (A549 NSCLC): > 100 µM
- GI50 (TK-10 renal): > 100 µM
- TGI (TK-10 renal): > 100 µM
- GI50 (KM12 colon): > 100 µM
- TGI (KM12 colon): > 100 µM
- GI50 (MOLT-4 leukemia): > 100 µM
- TGI (MOLT-4 leukemia): > 100 µM
- GI50 (EKVX NSCLC): > 100 µM
- TGI (EKVX NSCLC): > 100 µM
- GI50 (NCI-H522 lung): > 100 µM
- TGI (NCI-H522 lung): > 100 µM
- GI50 (T-47D breast): > 100 µM
- TGI (T-47D breast): > 100 µM
- GI50 (SF-295 CNS): > 100 µM
- TGI (SF-295 CNS): > 100 µM
- GI50 (UACC-62 melanoma): > 100 µM
- TGI (UACC-62 melanoma): > 100 µM
- GI50 (MDA-MB-231 breast): > 100 µM
- TGI (MDA-MB-231 breast): > 100 µM
- GI50 (HL-60(TB) leukemia): > 100 µM
- TGI (HL-60(TB) leukemia): > 100 µM
- GI50 (SN12C renal): > 100 µM
- TGI (SN12C renal): > 100 µM
- GI50 (PC-3 prostate): > 100 µM
- TGI (PC-3 prostate): > 100 µM
- GI50 (SNB-75 CNS): > 100 µM
- TGI (SNB-75 CNS): > 100 µM
- GI50 (DU-145 prostate): > 100 µM
- TGI (DU-145 prostate): > 100 µM
- GI50 (HCT-116 colon): > 100 µM
- TGI (HCT-116 colon): > 100 µM
- GI50 (MALME-3M melanoma): > 100 µM
- TGI (MALME-3M melanoma): > 100 µM
- GI50 (NCI-H322M lung): > 100 µM
- TGI (NCI-H322M lung): > 100 µM
- GI50 (MCF7 breast): > 100 µM
- TGI (MCF7 breast): > 100 µM
- GI50 (U251 glioblastoma): > 100 µM
- TGI (U251 glioblastoma): > 100 µM
- GI50 (SNB-19 CNS): > 100 µM
- TGI (SNB-19 CNS): > 100 µM
- GI50 (A498 renal): > 100 µM
- TGI (A498 renal): > 100 µM
- GI50 (NCI/ADR-RES ovarian): > 100 µM
- TGI (NCI/ADR-RES ovarian): > 100 µM
- GI50 (MDA-MB-468 breast): > 100 µM
- TGI (MDA-MB-468 breast): > 100 µM
- GI50 (SR leukemia): 98.2 µM
- TGI (SR leukemia): > 100 µM
- GI50 (RPMI-8226 leukemia): > 100 µM
- TGI (RPMI-8226 leukemia): > 100 µM
- GI50 (SF-539 CNS): > 100 µM
- TGI (SF-539 CNS): > 100 µM
- GI50 (HCC-2998 colon): > 100 µM
- TGI (HCC-2998 colon): > 100 µM
- GI50 (IGROV1 ovarian): > 100 µM
- TGI (IGROV1 ovarian): > 100 µM
- GI50 (SF-268 CNS): > 100 µM
- TGI (SF-268 CNS): > 100 µM
- GI50 (OVCAR-3 ovarian): > 100 µM
- TGI (OVCAR-3 ovarian): > 100 µM
- GI50 (OVCAR-5 ovarian): > 100 µM
- TGI (OVCAR-5 ovarian): > 100 µM
- GI50 (COLO 205 colon): > 100 µM
- TGI (COLO 205 colon): > 100 µM
- GI50 (NCI-H226 lung): > 100 µM
- TGI (NCI-H226 lung): > 100 µM
- GI50 (LOX IMVI melanoma): > 100 µM
- TGI (LOX IMVI melanoma): > 100 µM
- GI50 (SK-OV-3 ovarian): > 100 µM
- TGI (SK-OV-3 ovarian): > 100 µM
- GI50 (HOP-62 NSCLC): > 100 µM
- TGI (HOP-62 NSCLC): > 100 µM
- GI50 (ACHN renal): > 100 µM
- TGI (ACHN renal): > 100 µM
- GI50 (BT-549 breast): > 100 µM
- TGI (BT-549 breast): > 100 µM
- GI50 (MDA-MB-435 melanoma): > 100 µM
- TGI (MDA-MB-435 melanoma): > 100 µM
- GI50 (SK-MEL-5 melanoma): > 100 µM
- TGI (SK-MEL-5 melanoma): > 100 µM
